Measured values taken from EPA's ToxRefDB 2.

How the values were obtained:
rat [1] = settings: Developmental neurotoxicity study; long evans; Inhalation; Whole-Body; dose end: 100 PND; group: cannot be grouped; developmental / developmental malformation / bone / incomplete ossification + developmental / developmental malformation / ovary / …
rat [2] = settings: Carcinogenicity, Osborne-Mendel, Oral, Feed, dose end: 80 week, group: systemic
mink = settings: Multigenerational reproductive toxicity study, ranch wild brown, Oral, Feed, dose end: 1 generation
rat [3] = settings: Developmental neurotoxicity study, sprague dawley, Oral, [Not Specified], dose end: 155 PND, group: cannot be grouped
mouse = settings: Carcinogenicity; b6c3f1; Oral; Feed; dose end: 80 week; group: systemic; systemic / pathology microscopic / liver / hepatocellular carcinoma
rat [4] = settings: Developmental neurotoxicity study; sprague dawley; Oral; Gavage/Intubation; dose end: 125 PND; group: cannot be grouped; systemic / in life observation / body weight / offspring (pup) weight + systemic / in life observation / body weight / offspring (pup) …
rat [5] = settings: Multigenerational reproductive toxicity study, wistar, Oral, Feed, dose end: 2 generation
rat [6] = settings: Multigenerational reproductive toxicity study, wistar, Oral, Feed, dose end: 2 generation; remark: listed apart in the source
rat [7] = settings: Developmental neurotoxicity study; long evans; Injection; Intraperitoneal; dose end: 80 PND; group: cannot be grouped; systemic / in life observation / body weight / offspring (pup) weight + systemic / in life observation / clinical signs / abnormal movements…
[8] = systemic / in life observation / clinical signs / palpable mass + systemic / in life observation / clinical signs / vaginal discharge
[9] = systemic / in life observation / clinical signs / palpable mass + systemic / in life observation / clinical signs / vaginal discharge + …
[10] = group: offspring, developmental / offspring survival late / [other] / [other] + systemic / in life observation / body weight / offspring (pup) weight
[11] = group: offspring, systemic / in life observation / body weight / offspring (pup) weight
[12] = group: parental, systemic / in life observation / body weight / body weight + systemic / in life observation / clinical signs / [other] + systemic / in life …
[13] = group: reproductive, reproductive / reproductive performance / resorptions / resorptions + reproductive / offspring survival early / dead fetuses / dead fetuses
[14] = systemic / clinical chemistry / [other] / [other] + systemic / clinical chemistry / chloride / chloride + systemic / in life observation / …
[15] = systemic / clinical chemistry / chloride / chloride + systemic / in life observation / clinical signs / urination
[16] = group: parental, systemic / organ weight / epididymis / absolute + systemic / organ weight / testes / absolute
[17] = group: offspring, developmental / developmental landmark / anogenital distance (agd) / anogenital distance (agd) + developmental / developmental landmark / …
[18] = group: parental, systemic / in life observation / body weight / body weight gain + systemic / in life observation / body weight / body weight + systemic / …
[19] = group: reproductive, reproductive / offspring survival early / birth index / live birth index + reproductive / reproductive performance / estrous cycle / …

`ClC=C(Cl)Cl` [Trichloroethylene] gave an LEL (rat [1]) of 1800 ppm, an LOAEL (rat [1]) greater than 1800 ppm and an NEL (rat [1]) of less than 1800 ppm. The NOAEL (rat [1]) was no less than 1800 ppm.

In the case of `ClC1=C(Cl)C2(Cl)C3C(Cl)C=CC3C1(Cl)C2(Cl)Cl` (stereo unspecified) [Heptachlor], the LEL (rat [2]; [8]) is reported as 1.28 mg/kg/day, the NEL (rat [2]; [8]) is reported as less than 1.28 mg/kg/day and the LOAEL (rat [2]; [9]) is reported as greater than 2.56 mg/kg/day. It also gave an NOAEL (rat [2]; [9]) of no less than 2.56 mg/kg/day, an LOAEL (mink; [10]) greater than 25 mg/kg/day and an NOAEL (mink; [10]) of no less than 25 mg/kg/day. It also gave an LEL (mink; [11]) of 6.25 mg/kg/day, an NEL (mink; [11]) of less than 6.25 mg/kg/day and an LEL (mink; [12]) of 12.5 mg/kg/day. The LOAEL (mink; [12]) was greater than 25 mg/kg/day, the NEL (mink; [12]) was 6.25 mg/kg/day and the NOAEL (mink; [12]) was no less than 25 mg/kg/day. For the same compound, the NEL (mink; group: reproductive, reproductive / reproductive performance / resorptions / resorptions) was 6.25 mg/kg/day, the LEL (mink; [13]) was 12.5 mg/kg/day and the LOAEL (mink; [13]) was greater than 25 mg/kg/day. The NOAEL (mink; [13]) was no less than 25 mg/kg/day, the LOAEL (rat [3]; [14]) was greater than 3 mg/kg/day and the NOAEL (rat [3]; [14]) was no less than 3 mg/kg/day. For the same compound, the LEL (rat [3]; [15]) was 0.03 mg/kg/day, the NEL (rat [3]; [15]) was less than 0.03 mg/kg/day and the LEL (mouse) was 2.07 mg/kg/day. The LOAEL (mouse) was greater than 2.07 mg/kg/day, the NEL (mouse) was 0.915 mg/kg/day and the NOAEL (mouse) was no less than 2.07 mg/kg/day.

In the case of `CCC[CH2][Sn]([Cl])([CH2]CCC)[CH2]CCC` [Tributyltin chloride], the LEL (rat [4]) is reported as 5 mg/kg/day, the LOAEL (rat [4]) is reported as greater than 5 mg/kg/day and the NEL (rat [4]) is reported as 1 mg/kg/day. For the same compound, the NOAEL (rat [4]) was no less than 5 mg/kg/day, the LEL (rat [5]; [11]) was 0.25 mg/kg/day and the LOAEL (rat [5]; [11]) was 0.25 mg/kg/day. The NEL (rat [5]; [11]) was less than 0.25 mg/kg/day, the NOAEL (rat [5]; [11]) was less than 0.25 mg/kg/day and the LEL (rat [5]; [16]) was 0.25 mg/kg/day. The LOAEL (rat [5]; [16]) was 0.25 mg/kg/day, the NEL (rat [5]; [16]) was less than 0.25 mg/kg/day and the NOAEL (rat [5]; [16]) was less than 0.25 mg/kg/day. For the same compound, the LEL (rat [6]; group: offspring, developmental / developmental landmark / anogenital distance (agd) / anogenital distance (agd)) was 1.25 mg/kg/day, the LOAEL (rat [6]; [17]) was greater than 6.25 mg/kg/day and the NEL (rat [6]; [17]) was 0.25 mg/kg/day. For the same compound, the NOAEL (rat [6]; [17]) was no less than 6.25 mg/kg/day, the NEL (rat [6]; group: parental, systemic / in life observation / body weight / body weight gain) was 1.25 mg/kg/day and the LEL (rat [6]; [18]) was 6.25 mg/kg/day. For the same compound, the LOAEL (rat [6]; [18]) was greater than 6.25 mg/kg/day, the NOAEL (rat [6]; [18]) was no less than 6.25 mg/kg/day and the LEL (rat [6]; [19]) was 6.25 mg/kg/day. It also gave an LOAEL (rat [6]; [19]) greater than 6.25 mg/kg/day, an NEL (rat [6]; [19]) of 1.25 mg/kg/day and an NOAEL (rat [6]; [19]) of no less than 6.25 mg/kg/day.

`N#CCCNCCC#N` [3,3'-Iminobispropanenitrile] was tested, and the LEL (rat [7]) was 300 mg/kg/day, the LOAEL (rat [7]) was greater than 300 mg/kg/day and the NEL (rat [7]) was 150 mg/kg/day. For the same compound, the NOAEL (rat [7]) was no less than 300 mg/kg/day.
